Experimental data from ChEMBL document CHEMBL5724558, “Image-based profiling of drug vulnerabilities in CRC organoids” (2024).
“And” between values parts separate entries of the source, which are not always exact repeats. Identical values can stand only once.

Tests used:
Type in all cases: functional, Homo sapiens
Design in all cases: dose or concentration left out as unconfirmed
Colon cancer organoid [1] = experiment: (§1) Image-based profiling of donated chemical probes and chemogenomic kinase set in O09 CRC organoid. Image analysis is performed on the sum area metric, and the data were normalized to the DMSO control. After imaging the organoid viability is measured using the OneGloEX Luciferase Assay System. The normalized viability data and sum area are reported.
Colon cancer organoid [2] = experiment: as §1, with “O21” for “O09”
Colon cancer organoid [3] = experiment: as §1, with “O06” for “O09”

SMILES | Cell Viability (Colon cancer organoid [1]; Replication number 1) | Cell Viability (Colon cancer organoid [1]; Replication number 2) | Cell Viability (Colon cancer organoid [2]; Replication number 1) | Cell Viability (Colon cancer organoid [2]; Replication number 2) | Cell Viability (Colon cancer organoid [3]; Replication number 1) | Cell Viability (Colon cancer organoid [3]; Replication number 2)
COc1cc(-c2cn(C)c(=O)c3cnccc23)c(OC)cc1CN(C)C | 64.3431% and 76.9706% | 65.7343% and 74.6912% | 113.788% and 114.043% | 122.408% and 119.749% | 102.497% and 103.651% | 129.558% and 87.7058%
CC(=O)C1=C(C)N(c2cccc(C(F)(F)F)c2)C(=O)N[C@H]1c1ccc(C#N)nc1 [BAY-677] | 129.525% and 109.185% | 133.262% and 97.2618% | 113.516% and 88.4864% | 88.4804% and 82.1429% | 100.678% and 123.419% | 118.859% and 107.077%
CCCS(=O)(=O)c1cc(NC2CC2)nc(-c2ccc3c(ccn3C3CC(C)(C)NC(C)(C)C3)c2)n1 | 103.467% and 88.0989% | 115.748% and 108.331% | 82.8925% and 103.462% | 85.2127% and 87.5298% | 40.3908% and 48.3221% | 87.7215% and 108.975%
COc1ccccc1C(=O)Nc1cc2c(cc1N1CCCC1)n(C)c(=O)n2C | 131.649% and 89.49% | 142.608% and 94.0767% | 97.0271% and 91.1169% | 104.009% and 97.7327% | 152.076% and 120.081% | 178.087% and 127.616%
Cc1ccc(-c2ccc3c(ccc4sc5c(c43)NC[C@@H](C)NC5=O)n2)cn1 | 114.172% and 105.969% | 99.6709% and 79.9055% | 108.383% and 98.1185% | 106.246% and 104.786% | 131.751% and 124.635% | 132.52% and 124.216%
CN(C)C/C=C/C(=O)Nc1cc2c(Nc3ccc(F)c(Cl)c3)ncnc2cc1O[C@H]1CCOC1.O=C(O)/C=C\C(=O)O.O=C(O)/C=C\C(=O)O [AFATINIB DIMALEATE] | 8.847% and 13.6138% | 6.151% and 10.3121% | 61.0357% and 82.5087% | 65.3803% and 88.665% | 4.81% and 9.6592% | 4.363% and 10.2005%
CCCOc1ccn2c(C(C)=O)cc(-c3ccccc3S(C)(=O)=O)c2c1 | 82.358% and 82.5348% | 234.066% and 124.865% | 106.031% and 126.388% | 99.7688% and 110.084% | 138.616% and 118.389% | 149.88% and 120.685%
CCCCN(CCCC)C(=O)CN1C[C@@H](c2cc(OC)c3c(c2)OCO3)[C@H](C(=O)O)[C@H]1CC(C)(C)CCC [A-545] | 137.08% and 104.407% | 151.031% and 114.494% | 100.23% and 87.9043% | 101.691% and 84.1837% | 97.8309% and 86.6511% | 75.1695% and 72.7273%
CNC(=O)Nc1ccc(-c2nc(N3CC4CCC(C3)O4)c3cnn(C4CCC5(CC4)OCCO5)c3n2)cc1 | 16.963% and 8.004% | 13.8845% and 13.3086% | 32.2778% and 51.8467% | 33.537% and 47.4991% | 5.405% and 12.6193% | 4.979% and 10.7558%
CN(C)C(=O)c1cc2cnc(Nc3ccc(N4CCNCC4)cn3)nc2n1C1CCCC1 [RIBOCICLIB] | 49.4558% and 44.8808% | 42.3849% and 44.8119% | 76.3687% and 83.6237% | 91.6892% | 18.4025% and 48.7411% | 14.7054% and 40.1028%
CCC(=N\O)/C(C)=C/c1ccc(F)c(C)c1 [A-226] | 100.912% and 93.6554% | 132.086% and 110.405% | 109.207% and 89.6507% | 103.65% and 86.2245% | 97.0228% and 105.855% | 79.4149% and 80.7818%
CCCc1cc(C)[nH]c(=O)c1CNC(=O)c1cc(-c2ccnc(N3CCN(C)CC3)c2)cc2c1cnn2C(C)C | 138.622% and 115.688% | 134.993% and 114.602% | 85.4576% and 83.4749% | 100.02% and 92.3628% | 109.583% and 102.443% | 141.979% and 116.144%
CCOC(=O)CCNc1cc(N2CCc3ccccc3CC2)nc(-c2ccccn2)n1 | 78.8625% and 87.8671% | 139.531% and 105.195% | 97.5264% and 129.915% | 84.038% and 100.955% | 148.439% and 134.336% | 153.418% and 113.038%
CNCc1ccccc1-c1csc([C@@H](C)Nc2nc(C)nc3cc(OC)c(OC)cc23)c1 [BAY-293] | 109.186% and 103.451% | 63.3306% and 79.153% | 45.2566% and 84.9935% | 50.5698% and 76.0204% |  | 9.059% and 19.7098%
O=C(NCc1ccccc1)c1ccc(S(=O)(=O)NCc2ccccc2)cc1 | 92.4038% and 93.7908% | 103.22% and 86.1192% | 112.801% and 110.51% | 91.6281% and 94.6419% | 187.548% and 135.666% | 115.38% and 119.884%
CCS(=O)(=O)c1cc2cc(C[C@](O)(CC(C)(C)c3ccc(F)cc3C(N)=O)C(F)(F)F)[nH]c2cn1 [BI 653048] | 139.667% and 102.973% | 122.797% and 92.0044% | 95.8907% and 94.89% | 87.1647% and 83.1633% | 90.5623% and 97.4239% | 82.9692% and 113.237%
COCc1nc2cnc3cc(-c4c(C)noc4C)c(OC[C@H]4CCNC4)cc3c2n1[C@H](C)c1ccccc1 [GSK778] | 36.9836% and 58.5219% | 32.5027% and 49.1673% | 115.801% and 111.859% | 99.2147% and 116.757% | 42.5585% and 78.7045% | 45.6544% and 89.6204%
COc1cccc2c1C(=O)c1c(O)c3c(c(O)c1C2=O)CC(O)(C(=O)CO)CC3OC1CC(N)C(O)C(C)O1.Cl (stereo not drawn) | 17.7261% | 21.2234% | 24.67% and 46.8716% | 19.9524% and 41.0435% | 10.231% and 27.4494% | 
CN1CCN(c2cnc3c(C4CCN(C(=O)c5ccc(OC(F)(F)F)cc5N)CC4)ncnc3c2)CC1 [BAY-885] | 40.0205% and 84.5942% | 66.5359% and 88.2236% | 131.298% and 119.498% | 99.2561% and 98.9123% | 84.7491% and 99.8381% | 93.9717% and 91.062%
CC1=C(C)C(=O)C(C(C)(C)CC(=O)N(CCCCSC[C@H]2O[C@@H](n3cnc4c(N)ncnc43)[C@@H]3OC(C)(C)O[C@@H]32)Cc2cccc(-c3ccc(Cl)cc3)c2)=C(C)C1=O | 93.185% and 86.476% | 68.1346% and 85.8093% | 97.336% and 122.861% | 82.8638% and 97.7327% | 141.238% and 103.893% | 153.713% and 129.049%
